Columns and labels:
lambsquarters [1] = experiment: Test Example 5: herbicidal effect by foliage application, plastic box (Table 20, symbol O); type: in vivo, lambsquarters (Chenopodium album); conditions: foliage application, 320 g/ha, evaluated three weeks after application
Outline: (§1)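 Plants sown in sterilized diluvial soil and grown 14 days in a greenhouse at 25° C to 30° C, then sprayed on the foliage with the compound's emulsion diluted in water to a predetermined herbicide amount. Injury to weeds and crops scored three weeks after application on a visual rating scale.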

barnyard grass = experiment: Test Example 5: herbicidal effect by foliage application, plastic box (Table 20, symbol H); type: in vivo, barnyard grass (Echinochloa crus-galli); conditions: foliage application, 320 g/ha, evaluated three weeks after application
Outline: as §1

lambsquarters [2] = experiment: Test Example 4: herbicidal effect by soil treatment (Table 19, symbol O); type: in vivo, lambsquarters (Chenopodium album); conditions: 320 g/ha
Outline: (§2)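 Seeds were sown in sterilized diluvial soil and covered with about 1.5 cm of soil. An emulsion formulation diluted with water to a predetermined herbicide amount was sprayed evenly onto the soil surface. Plants grew in a greenhouse at 25° C. to 30° C., and the effect was scored three weeks after application using criteria from an earlier test.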

late watergrass [3] = experiment: Test Example 1: herbicidal activity, application before weed generation under submerged conditions (Table 16, symbol A); type: in vivo, late watergrass (Echinochloa oryzicola); conditions: 320 g/ha applied herbicide
Outline: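 Emulsion formulation, water-diluted to set dose, was put onto the flooded surface (4 cm depth, alluvial soil) the same day weeds were sown and 2.5-leaf rice transplanted. After 3 weeks at 25-30 °C under glass, each species was rated 0 (≤5% kill) to 5 (≥90% kill).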

windgrass = experiment: Test Example 4: herbicidal effect by soil treatment (Table 19, symbol L); type: in vivo, windgrass (Apera spica-venti); conditions: 320 g/ha
Outline: as §2

southern crabgrass = experiment: Test Example 4: herbicidal effect by soil treatment (Table 19, symbol F); type: in vivo, southern crabgrass (Digitaria ciliaris); conditions: 320 g/ha
Outline: as §2

late watergrass [4] = experiment: Test Example 2: herbicidal activity, application during weed generation under submerged conditions (Table 17, symbol A); type: in vivo, late watergrass (Echinochloa oryzicola); conditions: AAH 320 g/ha; application during weed generation, submerged conditions
Outline: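 Mixed weed seedlings in alluvial soil under a 4 cm water layer, greenhouse-grown at 25–30° C. Compound given as a diluted emulsion into the floodwater at the 1–2 leaf stage; response graded after three weeks.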

redroot pigweed = experiment: Test Example 5: herbicidal effect by foliage application, plastic box (Table 20, symbol N); type: in vivo, redroot pigweed (Amaranthus retroflexus); conditions: foliage application, 320 g/ha, evaluated three weeks after application
Outline: as §1

Italian ryegrass [5] = experiment: Test Example 4: herbicidal effect by soil treatment (Table 19, symbol K); type: in vivo, Italian ryegrass (Lolium multiflorum); conditions: 320 g/ha
Outline: as §2

Chinese sprangletop = experiment: Test Example 3: herbicidal effect by foliage application, Wagner pot (Table 18, symbol D); type: in vivo, chinese sprangletop (Leptochloa chinensis); conditions: 320 g/ha
Outline: (§3)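 Plants were sown in alluvial soil held under 0.1–0.5 cm standing water and grown 14 days in a greenhouse at 25–30 °C. An emulsifiable formulation, water-diluted to the set dose, was then sprayed onto the foliage, and effects were scored three weeks later using previously defined criteria.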

chickweed [6] = experiment: Test Example 5: herbicidal effect by foliage application, plastic box (Table 20, symbol P); type: in vivo, common chickweed (Stellaria media); conditions: foliage application, 320 g/ha, evaluated three weeks after application
Outline: as §1

rice flat sedge = experiment: Test Example 3: herbicidal effect by foliage application, Wagner pot (Table 18, symbol E); type: in vivo, rice flat sedge (Cyperus iria); conditions: 320 g/ha
Outline: as §3

wild oat [7] = experiment: Test Example 5: herbicidal effect by foliage application, plastic box (Table 20, symbol I); type: in vivo, wild oat (Avena fatua); conditions: foliage application, 320 g/ha, evaluated three weeks after application
Outline: as §1

chickweed [8] = experiment: Test Example 4: herbicidal effect by soil treatment (Table 19, symbol P); type: in vivo, common chickweed (Stellaria media); conditions: 320 g/ha
Outline: as §2

Italian ryegrass [9] = experiment: Test Example 5: herbicidal effect by foliage application, plastic box (Table 20, symbol K); type: in vivo, Italian ryegrass (Lolium multiflorum); conditions: foliage application, 320 g/ha, evaluated three weeks after application
Outline: as §1

wild oat [10] = experiment: Test Example 4: herbicidal effect by soil treatment (Table 19, symbol I); type: in vivo, wild oat (Avena fatua); conditions: 320 g/ha
Outline: as §2

Compound: COCCOc1ccc(-c2sc3ccc(F)cc3c2-c2c(O)c(C)nn(C)c2=O)cc1 [2-056]
- herbicidal effect on O: lambsquarters (lambsquarters [1]): 5 (Herbicidal rate of 90% or more (almost completely withered))
- herbicidal effect on H: barnyard grass (barnyard grass): 5 (Herbicidal rate of 90% or more (almost completely withered))
- herbicidal effect rating, O: lambsquarters (lambsquarters [2]): 5 (Herbicidal rate of 90% or more (almost completely withered))
- Herbicidal effect on A: late watergrass (grade 0-5) (late watergrass [3]): 3 (Herbicidal rate of 40% or more and less than 70%)
- herbicidal effect rating, L: windgrass (windgrass): 0 (Herbicidal rate of 5% or less (almost no effect))
- herbicidal effect rating, F: southern crabgrass (southern crabgrass): 5 (Herbicidal rate of 90% or more (almost completely withered))
- herbicidal effect rating, A: late watergrass (late watergrass [4]): 3 (Herbicidal rate of 40% or more and less than 70%)
- herbicidal effect on N: redroot pigweed (redroot pigweed): 5 (Herbicidal rate of 90% or more (almost completely withered))
- herbicidal effect rating, K: Italian ryegrass (Italian ryegrass [5]): 0 (Herbicidal rate of 5% or less (almost no effect))
- herbicidal effect on D (Chinese sprangletop), rating 0-5 (Chinese sprangletop): 5 (Herbicidal rate of 90% or more (almost completely withered))
- herbicidal effect on P: chickweed (chickweed [6]): 5 (Herbicidal rate of 90% or more (almost completely withered))
- herbicidal effect on E (rice flat sedge), rating 0-5 (rice flat sedge): 5 (Herbicidal rate of 90% or more (almost completely withered))
- herbicidal effect on I: wild oat (wild oat [7]): 4 (Herbicidal rate of 70% or more and less than 90%)
- herbicidal effect rating, P: chickweed (chickweed [8]): 5 (Herbicidal rate of 90% or more (almost completely withered))
- herbicidal effect on K: Italian ryegrass (Italian ryegrass [9]): 4 (Herbicidal rate of 70% or more and less than 90%)
- herbicidal effect rating, I: wild oat (wild oat [10]): 0 (Herbicidal rate of 5% or less (almost no effect))

Compound: Cc1nn(C)c(=O)c(-c2c(-c3ccc(OCC4CC4)cc3)sc3ccc(F)cc23)c1O [2-060]
- herbicidal effect on O: lambsquarters (lambsquarters [1]): 4 (Herbicidal rate of 70% or more and less than 90%)
- herbicidal effect on H: barnyard grass (barnyard grass): 3 (Herbicidal rate of 40% or more and less than 70%)
- herbicidal effect rating, O: lambsquarters (lambsquarters [2]): 4 (Herbicidal rate of 70% or more and less than 90%)
- Herbicidal effect on A: late watergrass (grade 0-5) (late watergrass [3]): 0 (Herbicidal rate of 5% or less (almost no effect))
- herbicidal effect rating, L: windgrass (windgrass): 0 (Herbicidal rate of 5% or less (almost no effect))
- herbicidal effect rating, F: southern crabgrass (southern crabgrass): 3 (Herbicidal rate of 40% or more and less than 70%)
- herbicidal effect rating, A: late watergrass (late watergrass [4]): 0 (Herbicidal rate of 5% or less (almost no effect))
- herbicidal effect on N: redroot pigweed (redroot pigweed): 5 (Herbicidal rate of 90% or more (almost completely withered))
- herbicidal effect rating, K: Italian ryegrass (Italian ryegrass [5]): 0 (Herbicidal rate of 5% or less (almost no effect))
- herbicidal effect on D (Chinese sprangletop), rating 0-5 (Chinese sprangletop): 3 (Herbicidal rate of 40% or more and less than 70%)
- herbicidal effect on P: chickweed (chickweed [6]): 5 (Herbicidal rate of 90% or more (almost completely withered))
- herbicidal effect on E (rice flat sedge), rating 0-5 (rice flat sedge): 5 (Herbicidal rate of 90% or more (almost completely withered))
- herbicidal effect on I: wild oat (wild oat [7]): 0 (Herbicidal rate of 5% or less (almost no effect))
- herbicidal effect rating, P: chickweed (chickweed [8]): 1 (Herbicidal rate of 5% or more and less than 20%)
- herbicidal effect on K: Italian ryegrass (Italian ryegrass [9]): 0 (Herbicidal rate of 5% or less (almost no effect))
- herbicidal effect rating, I: wild oat (wild oat [10]): 0 (Herbicidal rate of 5% or less (almost no effect))
